In ChEMBL document CHEMBL2434963, “Synthesis and cytotoxic activity of some novel steroidal C-17 pyrazolinyl derivatives” (Eur J Med Chem, 2013):
Converted amounts (≈) assume the structure as drawn.

Legend:
[1] = system: HeLa; experiment: cells; details: Homo sapiens, 48 h
Description: Cytotoxicity against human HeLa cells after 48 hrs by MTT assay

[2] = system: Artemia salina; experiment: Toxicity in Artemia salina larvae after 24 hrs by microscopic analysis; type: functional
[3] = system: HepG2; experiment: Cytotoxicity against human HepG2 cells after 48 hrs by MTT assay; type: functional, cell-based; details: HepG2, 48 h
[4] = system: NCI-H460; experiment: Cytotoxicity against human NCI-H460 cells after 48 hrs by MTT assay; type: functional, cell-based; details: NCI-H460, 48 h
[5] = system: HeLa; experiment: Cell cycle arrest in human HeLa cells assessed as accumulation at G2/M phase at 20 ug/ml after 24 hrs by propidium iodide staining-based flow cytometry (reference value: 11.7%); type: functional
[6] = system: HeLa; experiment: Cell cycle arrest in human HeLa cells assessed as accumulation at G2/M phase at 10 ug/ml after 24 hrs by propidium iodide staining-based flow cytometry (reference value: 11.7%); type: functional
[7] = system: HeLa; experiment: Cell cycle arrest in human HeLa cells assessed as accumulation at G0/G1 phase at 10 ug/ml after 24 hrs by propidium iodide staining-based flow cytometry (reference value: 67.7%); type: functional
[8] = system: HeLa; experiment: Cell cycle arrest in human HeLa cells assessed as accumulation at G2/M phase at 40 ug/ml after 24 hrs by propidium iodide staining-based flow cytometry (reference value: 11.7%); type: functional
[9] = system: HeLa; experiment: Cell cycle arrest in human HeLa cells assessed as accumulation at S phase at 10 ug/ml after 24 hrs by propidium iodide staining-based flow cytometry (reference value: 20.6%); type: functional
[10] = system: HeLa; experiment: Cell cycle arrest in human HeLa cells assessed as accumulation at S phase at 20 ug/ml after 24 hrs by propidium iodide staining-based flow cytometry (reference value: 20.6%); type: functional
[11] = system: HeLa; experiment: Cell cycle arrest in human HeLa cells assessed as accumulation at G0/G1 phase at 40 ug/ml after 24 hrs by propidium iodide staining-based flow cytometry (reference value: 67.7%); type: functional
[12] = system: HeLa; experiment: Cell cycle arrest in human HeLa cells assessed as accumulation at G0/G1 phase at 20 ug/ml after 24 hrs by propidium iodide staining-based flow cytometry (reference value: 67.7%); type: functional
[13] = system: HeLa; experiment: Cell cycle arrest in human HeLa cells assessed as accumulation at S phase at 40 ug/ml after 24 hrs by propidium iodide staining-based flow cytometry (reference value: 20.6%); type: functional

SMILES	IC50 [1]	LC50 [2]	IC50 [3]	IC50 [4]	further results
CC(=O)N1N=C([C@H]2CC[C@H]3[C@@H]4CCC5=C(Cl)C(=O)C=C[C@]5(C)[C@H]4CC[C@]23C)CC1c1ccccc1 (some centres undefined)	13.7 µg/mL (≈ 27.9 µM)	4.99 µg/mL (≈ 10.2 µM)	17.3 µg/mL (≈ 35.2 µM)	13.1 µg/mL (≈ 26.7 µM)	
CC(=O)N1N=C([C@H]2CC[C@H]3[C@@H]4CCC5=CC(=O)C=C[C@]5(C)[C@H]4CC[C@]23C)CC1c1ccc([N+](=O)[O-])cc1 (some centres undefined)	> 50 µg/mL	38.2 µg/mL (≈ 76.1 µM)			
COc1ccc(C2CC([C@H]3CC[C@H]4[C@@H]5CCC6=C(Cl)C(=O)C=C[C@]6(C)[C@H]5CC[C@]34C)=NN2C(C)=O)cc1 (mixture of isomers)	19.7 µg/mL	27.3 µg/mL	16.9 µg/mL	17.9 µg/mL	
CC(=O)N1N=C([C@H]2CC[C@H]3[C@@H]4CCC5=CC(=O)C=C[C@]5(C)[C@H]4CC[C@]23C)CC1c1ccccc1Cl (some centres undefined)	> 50 µg/mL	21.7 µg/mL (≈ 44.2 µM)			
COc1ccccc1C1CC([C@H]2CC[C@H]3[C@@H]4CCC5=CC(=O)C=C[C@]5(C)[C@H]4CC[C@]23C)=NN1C(C)=O (some centres undefined)	> 50 µg/mL	44.9 µg/mL (≈ 92.2 µM)			
COc1ccc(C2CC([C@H]3CC[C@H]4[C@@H]5CCC6=CC(=O)C=C[C@]6(C)[C@H]5CC[C@]34C)=NN2C(C)=O)cc1 (some centres undefined)	> 50 µg/mL	> 50 µg/mL			
CC(=O)N1N=C([C@H]2CC[C@H]3[C@@H]4CCC5=C(Cl)C(=O)C=C[C@]5(C)[C@H]4CC[C@]23C)CC1c1ccccc1[N+](=O)[O-] (some centres undefined)	> 50 µg/mL	7.7 µg/mL (≈ 14.4 µM)	> 50 µg/mL	14.8 µg/mL (≈ 27.6 µM)	
CC(=O)N1N=C([C@H]2CC[C@H]3[C@@H]4CCC5=C(Cl)C(=O)C=C[C@]5(C)[C@H]4CC[C@]23C)CC1c1ccc([N+](=O)[O-])cc1 (some centres undefined)	> 50 µg/mL	8.43 µg/mL (≈ 15.7 µM)	> 50 µg/mL	> 50 µg/mL	
COc1ccccc1C1CC([C@H]2CC[C@H]3[C@@H]4CCC5=C(Cl)C(=O)C=C[C@]5(C)[C@H]4CC[C@]23C)=NN1C(C)=O (mixture of isomers)	15.3 µg/mL	9.92 µg/mL	16.2 µg/mL	15.7 µg/mL	
CC(=O)N1N=C([C@H]2CC[C@H]3[C@@H]4CCC5=CC(=O)C=C[C@]5(C)[C@H]4CC[C@]23C)CC1c1ccc(Cl)cc1 (some centres undefined)	> 50 µg/mL	36.6 µg/mL (≈ 74.6 µM)			
CC(=O)N1N=C([C@H]2CC[C@H]3[C@@H]4CCC5=C(Cl)C(=O)C=C[C@]5(C)[C@H]4CC[C@]23C)CC1c1ccccc1Cl (mixture of isomers)	12.5 µg/mL	5.65 µg/mL	24.3 µg/mL	10.3 µg/mL	Activity [5]: 9.7%; Activity [6]: 9.9%; Activity [7]: 55.8%; Activity [8]: 11.3%; Activity [9]: 34.3%; Activity [10]: 38.9%; Activity [11]: 47.6%; Activity [12]: 51.4%; Activity [13]: 41.1%
CC(=O)N1N=C([C@H]2CC[C@H]3[C@@H]4CCC5=C(Cl)C(=O)C=C[C@]5(C)[C@H]4CC[C@]23C)CC1c1ccc(Cl)cc1 (some centres undefined)	26.6 µg/mL (≈ 50.6 µM)	10.4 µg/mL (≈ 19.8 µM)	25.3 µg/mL (≈ 48.1 µM)	13.9 µg/mL (≈ 26.4 µM)	
CC(=O)[C@H]1CC[C@H]2[C@@H]3CCC4=CC(=O)CC[C@]4(C)[C@H]3CC[C@]12C [PROGESTERONE]	> 50 µg/mL	> 100 µg/mL			
O=c1[nH]cc(F)c(=O)[nH]1 [FLUOROURACIL]	0.887 µg/mL (≈ 6.82 µM)			2.48 µg/mL (≈ 19.1 µM)	
CC(=O)N1N=C([C@H]2CC[C@H]3[C@@H]4CCC5=CC(=O)C=C[C@]5(C)[C@H]4CC[C@]23C)CC1c1ccccc1 (some centres undefined)	> 50 µg/mL	18.9 µg/mL (≈ 41.5 µM)			
CC(=O)[C@H]1CC[C@H]2[C@@H]3CCC4=C(Cl)C(=O)C=C[C@]4(C)[C@H]3CC[C@]12C	> 50 µg/mL	> 100 µg/mL	> 50 µg/mL	26.7 µg/mL (≈ 77 µM)	
CC(=O)N1N=C([C@H]2CC[C@H]3[C@@H]4CCC5=CC(=O)C=C[C@]5(C)[C@H]4CC[C@]23C)CC1c1ccccc1[N+](=O)[O-] (some centres undefined)	> 50 µg/mL	30.2 µg/mL (≈ 60.2 µM)			
